Measured values published in US4480118A, “Carboxylic acid ester and an insecticidal and/or acaricidal composition containing the same” (priority 1981, dated 1984).
≈ marks a conversion by molar mass, not a printed value. Where two headings read alike, the source gives them in different places.

Columns and labels:
northern house mosquito = test: Activity of oil spray against adult female northern house mosquito (glass chamber); type: in vivo
Procedure: (§1) 0.1 Part of each compound Nos. 10, 12, 15, 17, 18, 19, 22, 23 and 29 of this invention is dissolved in deodorized kerosene and made up to 100 parts with kerosene to obtain an oil spray.
(§2) Ten adult houseflies and ten adult female northern house mosquitos were released in a glass chamber, 70×70×70 cm in size. An oil spray preparation (0.5 ml) obtained in Preparation Example 1 was sprayed inside the chamber and the insects were exposed to the descending mist for 10 minutes, during which time the number of knocked-down insects was counted at predetermined time intervals to determine the 50% knockdown time (KT50). On the following day, the dead and alive insects were observed.

housefly [1] = test: Activity of oil spray against adult housefly (glass chamber); type: in vivo; conditions: oil spray 0.5 ml, 10 minutes exposure; for mortality, House fly: observed on the following day, 1440 min
Procedure: as §1, §2

housefly [2] = test: Insecticidal activity against housefly (Topical application method); type: in vivo; conditions: dorsal thorax, adult female, 24 hours
Procedure: The present compounds and the reference compounds were diluted with acetone to prescribed concentrations. Each 0.5 μl of the diluted samples was applied topically with a microsyringe onto the dorsal thorax of an adult female housefly. The flies were fed and observed for the number of dead and alive insects after 24 hours. LD50 (median lethal dose) was calculated from the mortalities at each dosage by probit method.

green rice leafhopper = test: Insecticidal activity against green rice leafhopper; conditions: Nephotettix cincticeps, 24 h
tobacco cutworm = test: Insecticidal activity against tobacco cutworm; type: in vivo; conditions: 24 h
Procedure: An artificial diet (15 g) for tobacco cutworm was wet with 2 ml of the prescribed aqueous dilution of an emulsifiable concentrate obtained in Preparation Example 2 or of that obtained from reference compounds. The diet thus treated was placed in a polyethylene cup of 11 cm in diameter.

housefly [3] = test: Insecticidal activity against housefly (Filter paper bait and contact method); type: in vivo; conditions: for mortality at 500 ppm: Musca domestica
Procedure: Each 20 parts of the present compounds No. 1 to No. 29, 10 parts of an emulsifier (Sorpol 3005X; trademark for Toho Chemical Co.) and 70 parts of xylene are thoroughly mixed by stirring to obtain an emulsifiable concentrate of each compound.
A piece of filter paper, 5.5 cm in diameter, was laid on the bottom of a polyethylene cup of the identical inner diameter. An emulsifiable concentrate prepared in the same manner as in Preparation Example 2 was diluted with water. To the filter paper, was added dropwise 0.7 ml of the diluted sample (500 ppm in concentration). Sucrose (30 mg) was placed on the filter paper to serve as bait. Ten adult female houseflies were released into the cup, closed with a cover, and observed for the number of dead and alive insects after 48 hours to calculate the mortality (2 replications).

[4] = oil spray 0.5 ml, 10 minutes exposure
[5] = oil spray 0.5 ml, 10 minutes exposure, observed on the following day, 1440 min
[6] = read-out: Percent mortality days after spraying: 0
[7] = read-out: Percent mortality days after spraying: 3
[8] = read-out: Percent mortality days after spraying: 7
[9] = read-out: LC50 (median lethal concentration), treated artificial diet, third-instar larvae, 24 hours
[10] = 500 ppm, 48 hours, adult female houseflies, read-out: Mortality
[11] = read-out: LC50 (median lethal concentration)
[12] = northern house mosquito, in vivo, 24 h

## CC1(C)C(C(=O)OC(C#N)c2cccc(Oc3ccccc3)c2)C12C=Cc1ccccc12 (centres unmarked) [drawing 64, reference compound]
Northern house mosquito; [4]
  KT50 (50% knockdown time), Northern house mosquito: 600 s
Northern house mosquito; [5]
  mortality, Northern house mosquito: 50%
Housefly [1]
  KT50 (50% knockdown time), House fly: > 600 s

## CC1(C)C(C(=O)OC(C#N)c2cccc(Oc3ccccc3)c2)C12Cc1ccccc1C2 (centres unmarked) [Compound 2]
Housefly [2]
  LD50 (median lethal dose): 0.0045 μg/female
Green rice leafhopper; [6]
  mortality at 50 ppm: 100%
Green rice leafhopper; [7]
  mortality at 50 ppm: 100%
Green rice leafhopper; [8]
  mortality at 50 ppm: 100%
Tobacco cutworm; [9]
  LC50: 2 µg/mL (≈ 4.72 µM)
Housefly [3]; [10]
  mortality at 500 ppm: 100%

## CC1(C)C(C(=O)OC(C#N)c2cccc(Oc3ccccc3)c2)C12Cc1ccc(Cl)cc1C2 (centres unmarked) [Compound 3]
Housefly [2]
  LD50 (median lethal dose): 0.0076 μg/female
Green rice leafhopper; [6]
  mortality at 50 ppm: 100%
Green rice leafhopper; [7]
  mortality at 50 ppm: 100%
Green rice leafhopper; [8]
  mortality at 50 ppm: 100%
Tobacco cutworm; [9]
  LC50: 3.3 µg/mL (≈ 7.21 µM)
Housefly [3]; [10]
  mortality at 500 ppm: 100%

## CC1(C)C(C(=O)OC(C#N)c2ccc(F)c(Oc3ccccc3)c2)C12Cc1ccccc12 (centres unmarked) [Compound 20]
Green rice leafhopper; [6]
  mortality at 50 ppm: 100%
Green rice leafhopper; [7]
  mortality at 50 ppm: 100%
Green rice leafhopper; [8]
  mortality at 50 ppm: 90%
Housefly [3]; 48 h
  mortality at 500 ppm: 100%

## CC(C)=CC1C(C(=O)OCc2cccc(Oc3ccccc3)c2)C1(C)C (centres unmarked) [drawing 58, reference compound]
Housefly [2]
  LD50 (median lethal dose): 0.26 μg/female

## CNC(=O)Oc1cccc2ccccc12 [NAC, 1naphthyl N--methylcarbamate, reference compound]
Green rice leafhopper; [6]
  mortality at 250 ppm: 50%

## CC1(C)C(C(=O)OCC=C(Cl)Cc2ccccc2)C12Cc1ccccc1C2 (centres unmarked) [Compound 25]
Tobacco cutworm; [9]
  LC50: 4 µg/mL (≈ 10.5 µM)
Housefly [3]; [10]
  mortality at 500 ppm: 100%

## CC1(C)C(C(=O)OCc2cccc(Oc3ccccc3)c2)C12Cc1ccccc1C2 (centres unmarked) [Compound 21]
Housefly [3]; [10]
  mortality at 500 ppm: 100%

## C=CCc1cccc2c1CCC2OC(=O)C1C(C)(C)C12Cc1ccc(F)cc1C2 (centres unmarked) [Compound 26]
Housefly [3]; [10]
  mortality at 500 ppm: 100%

## CC1(C)C(C(=O)OC(C#N)c2cccc(Oc3ccccc3)c2)C12Cc1c(F)c(F)c(F)c(F)c1C2 (centres unmarked) [Compound 1]
Housefly [2]
  LD50 (median lethal dose): 0.0052 μg/female
Green rice leafhopper; [6]
  mortality at 50 ppm: 100%
Green rice leafhopper; [7]
  mortality at 50 ppm: 100%
Green rice leafhopper; [8]
  mortality at 50 ppm: 86%
Tobacco cutworm; [9]
  LC50: 3.5 µg/mL (≈ 7.06 µM)
Housefly [3]; [10]
  mortality at 500 ppm: 100%

## CC(C)=CC1C(C(=O)OCc2cccc(Oc3ccccc3)c2)C1(C)C (centres unmarked) [drawing 62, reference compound]
Tobacco cutworm; [11]
  LC50: 24 µg/mL (≈ 68.5 µM)

## CC1(C)[C@@H](C(=O)OC(C#N)c2cccc(Oc3ccccc3)c2)[C@]12Cc1ccccc1O2 (relative stereo) [Compound 17]
Northern house mosquito; [12]
  mortality, Northern house mosquito: 100%
Northern house mosquito; [4]
  KT50 (50% knockdown time), Northern house mosquito: 330 s
Housefly [2]
  LD50 (median lethal dose): 0.064 μg/female
Housefly [1]
  KT50 (50% knockdown time), House fly: 264 s
  mortality, House fly: 80%
Housefly [3]; [10]
  mortality at 500 ppm: 100%

## CC(C)=CC1C(C(=O)OC(C#N)c2cccc(Oc3ccccc3)c2)C1(C)C (centres unmarked) [reference compound]
Housefly [2]
  LD50 (median lethal dose): 0.079 μg/female

## C#CC(C#C)OC(=O)C1C(C)(C)C12Cc1ccccc1C2 (centres unmarked) [Compound 24]
Housefly [3]; [10]
  mortality at 500 ppm: 100%

## CC1(C)C(C(=O)OC(C#N)c2cccc(Oc3ccccc3)c2)C12Cc1ccc(F)cc1C2 (centres unmarked) [Compound 4]
Housefly [2]
  LD50 (median lethal dose): 0.0042 μg/female
Tobacco cutworm; [9]
  LC50: 1 µg/mL (≈ 2.26 µM)
Housefly [3]; [10]
  mortality at 500 ppm: 100%

## CC1(C)C(C(=O)OC(C#N)c2cccc(Oc3ccccc3)c2)C12C=Cc1ccccc12 (centres unmarked) [drawing 61, reference compound]
Housefly [2]
  LD50 (median lethal dose): 0.16 μg/female

## CC1(C)C(C(=O)O[C@H](C#N)c2cccc(Oc3ccccc3)c2)C12Cc1ccccc1C2 (some centres unmarked) [Compound 8]
Housefly [2]
  LD50 (median lethal dose): 0.0032 μg/female
Tobacco cutworm; [9]
  LC50: 1.1 µg/mL (≈ 2.6 µM)
Housefly [3]; [10]
  mortality at 500 ppm: 100%

## CC1(C)C(C(=O)OCc2c(Cl)c(Cl)c(Cl)c(Cl)c2Cl)C12Cc1ccccc1C2 (centres unmarked) [Compound 28]
Tobacco cutworm; treated artificial diet, third-instar larvae, 24 hours, read-out: LC50 (median lethal concentration)
  LC50: 8.7 µg/mL (≈ 18.2 µM)
Housefly [3]; [10]
  mortality at 500 ppm: 100%

## CC1(C)C(C(=O)OC(C#N)c2cccc(Oc3ccccc3)c2)C12Cc1cccc(F)c1C2 (centres unmarked) [Compound 6]
Housefly [3]; [10]
  mortality at 500 ppm: 100%

## C#CC(OC(=O)C1C(C)(C)C12Cc1ccccc1C2)C(C)=CCC (centres unmarked) [Compound 14]
Housefly [3]; [10]
  mortality at 500 ppm: 100%

## CC1(C)C(C(=O)OC(C#N)c2ccc(F)c(Oc3ccccc3)c2)C12Cc1ccccc1C2 (centres unmarked) [Compound 7]
Housefly [2]
  LD50 (median lethal dose): 0.0044 μg/female
Green rice leafhopper; [6]
  mortality at 50 ppm: 100%
Green rice leafhopper; [7]
  mortality at 50 ppm: 100%
Green rice leafhopper; [8]
  mortality at 50 ppm: 100%
Tobacco cutworm; [9]
  LC50: 1.8 µg/mL (≈ 4.08 µM)
Housefly [3]; [10]
  mortality at 500 ppm: 100%

## CC1(C)C(C(=O)OC2C=C(Cc3ccccc3)C(=O)C2)C12Cc1ccccc1C2 (centres unmarked) [Compound 29]
Northern house mosquito; [12]
  mortality, Northern house mosquito: 70%
Northern house mosquito; [4]
  KT50 (50% knockdown time), Northern house mosquito: 296 s
Housefly [1]
  KT50 (50% knockdown time), House fly: 298 s
  mortality, House fly: 40%
Housefly [3]; [10]
  mortality at 500 ppm: 100%

## C#CCC=C(C)C(C#C)OC(=O)C1C(C)(C)C12Cc1ccccc1C2 (centres unmarked) [Compound 23]
Northern house mosquito; [12]
  mortality, Northern house mosquito: 70%
Northern house mosquito; [4]
  KT50 (50% knockdown time), Northern house mosquito: 360 s
Housefly [2]
  LD50 (median lethal dose): 0.045 μg/female
Housefly [1]
  KT50 (50% knockdown time), House fly: 388 s
  mortality, House fly: 60%
Housefly [3]; [10]
  mortality at 500 ppm: 100%

## CC1(C)C(C(=O)OCc2coc(Cc3ccccc3)c2)C12Cc1ccccc1C2 (centres unmarked) [Compound 11]
Housefly [2]
  LD50 (median lethal dose): 0.023 μg/female
Housefly [3]; [10]
  mortality at 500 ppm: 100%

## C#CCN1CC(=O)N(COC(=O)C2C(C)(C)C23Cc2ccccc2C3)C1=O (centres unmarked) [Compound 22]
Northern house mosquito; [12]
  mortality, Northern house mosquito: 10%
Northern house mosquito; [4]
  KT50 (50% knockdown time), Northern house mosquito: 344 s
Housefly [1]
  KT50 (50% knockdown time), House fly: 80 s
  mortality, House fly: 90%
Housefly [3]; [10]
  mortality at 500 ppm: 100%

## CC1(C)C(C(=O)O[C@H](C#N)c2cccc(Oc3ccccc3)c2)C12Cc1ccccc1C2 (some centres unmarked) [Compound 9]
Housefly [2]
  LD50 (median lethal dose): 0.0013 μg/female
Tobacco cutworm; tobacco cutworm, in vivo
  LC50 (median lethal concentration): 0.6 ppm
Housefly [3]; 500 ppm, 48 hours, adult female houseflies
  Mortality: 100%

## CC1(C)C(C(=O)OC(C#N)c2cccc(Oc3ccccc3)c2)C12C=Cc1ccccc12 (centres unmarked) [drawing 63, reference compound]
Tobacco cutworm; [11]
  LC50: 46.1 µg/mL (≈ 109 µM)

## CC1(C)C(C(=O)OCc2cccc(Cc3ccccc3)c2)C12Cc1ccccc1C2 (centres unmarked) [Compound 13]
Green rice leafhopper; [6]
  mortality at 50 ppm: 100%
Green rice leafhopper; [7]
  mortality at 50 ppm: 93%
Green rice leafhopper; [8]
  mortality at 50 ppm: 100%
Housefly [3]; [10]
  mortality at 500 ppm: 100%

## CC1(C)C(C(=O)OC(C#N)c2cccc(Oc3ccc(Br)cc3)c2)C12Cc1ccccc1C2 (centres unmarked) [Compound 16]
Green rice leafhopper; [6]
  mortality at 50 ppm: 100%
Green rice leafhopper; [7]
  mortality at 50 ppm: 100%
Green rice leafhopper; [8]
  mortality at 50 ppm: 97%
Housefly [3]; [10]
  mortality at 500 ppm: 100%

## CC1(C)C(C(=O)OCN2C(=O)C3=C(CCCC3)C2=O)C12Cc1ccccc1C2 (centres unmarked) [Compound 12]
Northern house mosquito; [12]
  mortality, Northern house mosquito: 95%
Northern house mosquito; [4]
  KT50 (50% knockdown time), Northern house mosquito: 400 s
Housefly [1]
  KT50 (50% knockdown time), House fly: 125 s
  mortality, House fly: 10%
Housefly [3]; [10]
  mortality at 500 ppm: 100%

## CC1(C)C(C(=O)OC(C#N)c2cccc(Oc3ccccc3)c2)C12Cc1ccccc12 (centres unmarked) [Compound 19]
Northern house mosquito; [4]
  KT50 (50% knockdown time), Northern house mosquito: 492 s
Northern house mosquito; [5]
  mortality, Northern house mosquito: 100%
Tobacco cutworm; [11]
  LC50: 5 µg/mL (≈ 12.2 µM)
Housefly [1]
  KT50 (50% knockdown time), House fly: 600 s
  mortality, House fly: 80%
Housefly [3]; 48 h
  mortality at 500 ppm: 100%
